Data taken from patent US10583098B2, “Topical co-enzyme Q10 formulations and treatment of pain, fatigue and wounds” (priority 2006, dated 2020).

What was measured:
Format in all cases: cell-based
[1] = tested on: Human Aortic Smooth Muscle Cells (HASMC); assay: ATP production in HASMC, Luciferin-Luciferase ATP assay; conditions: 0-20 μg/ml, 24 h, in words
Protocol: We have investigated the effect of Q10 on ATP production in Human Aortic Smooth Muscle Cells (HASMC). This cell line was chosen for the study based on its ability to produce ATP at levels detectable by the Luciferin-Luciferase ATP assay. We also studied the effect of The composition comprising about 0.001% to about 60% (w/w) Coenzyme Q10 on Muscle Cell proliferation.
(§1) D-(+)-Glucose at 10 mM (Peiro et al., Brit. Jour. of Pharmacology 133: 967-974 (2001)) was used as an energy substrate for the production of ATP. The wells of the 6-well plate were incubated with 0-20 μg/ml of CoQ10, 1 μg and 20 μg/ml CoQ10, or 1 μg and 20 μg/ml of the Vehicle of Coenzyme Q10, all in Medium 231. The well plates were incubated at 37° C. and 5% CO2 for specified experimental periods. Medium 231 contains 4.6 mM Glu originally, thus only an additional 5.4 mM added to medium (Dr. Gary D. Shipley, Cascade Biologics, Portland, Oreg.).
After incubation, the medium was removed and replaced with cold (4° C.) 1% w/v Trichloroacetic Acid (TCA) as the lysis buffer. This buffer causes almost instantaneous inhibition of ATPases (Kangas et al., Med Biol 62: 338-343 (1984)). The wells were incubated with TCA at room temperature for 5 min with gentle swirling. […]
HASM Cells were incubated at 37° C. and 5% CO2 with 0-20 μg/ml Coenzyme Q10. […] Samples were then taken for quantification of ATP using the Luciferin-Luciferase ATP Assay. […]

[2] = tested on: Human Aortic Smooth Muscle Cells (HASMC); assay: HASMC proliferation, Coulter cell count; conditions: for Cell number: 24 h incubation, HASMC; for % Diff vs. Ctrl (24 hr): HASMC cell number
Protocol: At approximately 80% confluency, the cells were subcultured using Trypsin-EDTA to detach the cells and Defined Trypsin Inhibitor, DTI to neutralize the cell suspension before centrifugation at 2500 RPM for 8 minutes. The supernatant was aspirated and discarded. The resultant cell pellet was then resuspended in fresh Medium 231. A cell count was performed using a hemocytometer before seeding the experimental 6-well plates at 200,000 cells/well.
Q10 was dissolved in ethanol and the solution was diluted with Medium 231 to the required concentrations. The Vehicle used in preparing the composition comprising about 0.001% to about 60% (w/w) Coenzyme Q10 was composed of MCT, BHT, Glycerol, and Sodium Phosphate buffered to pH 7.2 and subjected to sonication, then diluted with Medium 231 to experimental concentrations.
as §1
The well-plates were decanted to empty the wells of the reagents and any residue was aspirated carefully with an electronic pipettor. 0.5 ml Trypsin-EDTA was added to each well for 5-7 minutes to aid detachment. Upon complete detachment as determined under a microscope, 0.5 ml Medium 231 was added to the resultant cell suspension to neutralize the Trypsin. 0.5 ml of this cell suspension was taken for reading in a Coulter cell counter.
In FIG. 2, HASM Cells were incubated at 37° C. and 5% CO2 with 0-20 μg/ml Coenzyme Q10, The composition comprising about 0.001% to about 60% (w/w) Coenzyme Q10, and the Vehicle(V) used in The composition comprising about 0.001% to about 60% (w/w) Coenzyme Q10. The 6-well plates were incubated for 24 h in Medium 231. After treatment with Trypsin-EDTA and gentle scraping, cells were neutralized with Medium 231 and mixed by pipetting. Samples were then taken for quantification using a Coulter cell counter. (*Significant compared to Ctrl, P<0.05; One-way ANOVA and Dunnett's).

[3] = tested on: Human neonatal fibroblasts (nFIB); assay: In vitro incisional wound model, fibroblast migration; conditions: versus control, in words
Protocol: (§2) The proliferation and migration of keratinocytes and fibroblasts are paramount to the restoration of the cutaneous architecture. […] To test the effect of Q10 on neonatal fibroblasts and keratinocytes, an in vitro incisional wound model was employed. Cells were seeded in 6-well tissue culture plates with supplemented media and incubated for 48 hours to facilitate a 90% confluency level prior to experimentation. A cross-shaped “wound” gap was made among the near confluent monolayer of cells in the center of each well. Detached cells were then washed off with medium. Each well was then replenished with medium with or without Q10. […] Cell migration was quantified by time and percentage of “wound” gap covered by cells that migrated into the gap field. The percentage of gap filled (PGf) was calculated as PGf=(1−At/A0)×100, where At is the gap area at time t, and A0 is the gap area at time 0. […]
(§3) Human neonatal fibroblasts (nFIB) and human neonatal keratinocytes (SC-KC) were grown to ˜90% confluency in T-75 flasks at which time they were trypsinized and seeded into 6-well tissue culture plates. […] Cell migration was quantified by time and percentage of “wound” gap covered by cells that migrated into the gap field. The percentage of gap filled (PGf) was calculated as PGf=(1−At/A0)×100, where A(t) is the gap area at time t, and A(0) is the gap area at time 0. […]

[4] = tested on: human neonatal keratinocytes (SC-KC); assay: In vitro incisional wound model, keratinocyte migration; conditions: versus control, in words
Protocol: as §2, §3

[5] = tested on: Human neonatal fibroblasts (nFIB); assay: Fibroblast proliferation; conditions: in words
Description: (§4) FIGS. 7-10 show the results obtained.

[6] = tested on: human neonatal keratinocytes (SC-KC); assay: Keratinocyte proliferation; conditions: in words
Description: as §4

Compound: COC1=C(OC)C(=O)C(C/C=C(\C)CC/C=C(\C)CC/C=C(\C)CC/C=C(\C)CC/C=C(\C)CC/C=C(\C)CC/C=C(\C)CC/C=C(\C)CC/C=C(\C)CCC=C(C)C)=C(C)C1=O [Q-10, 2,3-dimethoxy-5-methyl-6-decaprenyl-1,4-benzoquinone]
- Effect on ATP production [1]: increases ATP production
- Effect on ATP production ([1]; listed as Coenzyme Q10): stimulatory effect on ATP production
- Cell number ([2]; 1.0 μg/ml): 42.4 10^4
- % Diff vs. Ctrl (24 hr) ([2]; 1.0 μg/ml): 65.1%
- Cell number ([2]; 20.0 μg/ml): 63.1 10^4
- % Diff vs. Ctrl (24 hr) ([2]; 20.0 μg/ml): 145.6%
- Fibroblast migration (rate of gap coverage) [3]: statistically significant increase in the rate of gap coverage
- Fibroblast migration (rate of gap coverage) ([3]; listed as coenzyme Q10): enhances the migration and proliferation
- Keratinocyte migration (rate of gap coverage) [4]: statistically significant increase in the rate of gap coverage
- Keratinocyte migration (rate of gap coverage) ([4]; listed as coenzyme Q10): enhances the migration and proliferation
- Fibroblast proliferation [5]: enhances the migration and proliferation
- Keratinocyte proliferation [6]: enhances the migration and proliferation
